Legend:
[1] = tested on: immune checkpoint (IC) and Wnt target gene loci; assay: ATAC-seq chromatin accessibility in LSCs and blast cells; type: in vivo, mouse; conditions: [Low]DXR
Text: Inhibitory IC gene loci are highlighted (blue dots).
Cells were sorted from BM pooled from 20 leukemia mice treated with [Low]DXR and 8 leukemia mice treated with vehicle control at 15-30 k/replicate.
FIG. 4M is metagene analysis of LSCs showing chromatin accessibility near the transcriptional start site (TSS) in immune-checkpoint gene loci (listed) compared with all loci showing significant changes. Gene synonyms are listed here in parentheses Hvem (Tnfrsf14), Gal-9 (Lgals9), Ox401 (Tnfsf4), Tnfsf7 (Cd70), B7-H2 (Icosl), B7-H3 (Cd276), B7-H4 (Vtcn1), Pd1 (Pdcd1), Tnfrsf7 (Cd27), Tim3 (Havcr2), Ox40 (Tnfrsf4).
Cells were sorted from BM pooled from 20 leukemia mice treated with [Low]DXR and 8 leukemia mice treated with vehicle control. Experiment was repeated 1 time with similar results.
ATAC-seq was performed in LSCs and blast cells following the protocol described in Buenrostro et al., ATAC-seq: A Method for Assaying Chromatin Accessibility Genome-Wide. Curr Protoc Mol Biol. 2015 Jan. 5,109:21.29.1-9, the entirety of which is incorporated herein by reference. Cells were sorted from BM pooled from 20 leukemia mice treated with [Low]DXR and 8 leukemia mice treated with vehicle control at 15-30 k/replicate.
Collected cells were subject to transposition reaction and purification. In brief, 30,000 FACS-sorted blast cells were washed using 50 μl cold 1×PBS and centrifuged at 500 g for 5 min in a pre-chilled (4° C.) fixed-angle centrifuge. Cells were lysed using cold lysis buffer (10 mM Tris-HCl, pH 7.4, 10 mM NaCl, 3 mM MgCl2 and 0.1% IGEPAL CA-630). Following the lysis, the pellet was resuspended in the transposase reaction mix. The transposition reaction mix contains 25 μl TD (2× reaction buffer), 2.5 μl TDE1 (Nextera Tn5 Transposase) and 22.5 μl Nuclease Free H2O. Resuspended nuclei in the transposition reaction mix. Incubated the transposition reaction at 37° C. for 30 min. Immediately following transposition, purification was performed by using a Qiagen MinElute PCR Purification Kit. Eluted transposed DNA in 10 μl Elution Buffer (10 mM Tris buffer, pH 8). Transposed DNA fragments were amplified by PCR. The PCR mixture contains 10 μl transposed DNA, 10 μl Nuclease Free H2O, 2.5 μl 25 μM Custom Nextera PCR Primer 1, 2.5 μl 25 μM Custom Nextera PCR Primer 2 (Contains Barcode) and 25 μl NEBNext High-Fidelity 2×PCR Master Mix. The thermal cycle is as follows: 1 cycle of 72° C. for 5 min, 98° C. for 30 sec, 5 cycles of 98° C. for 10 sec, 63° C. for 30 sec, 72° C. for 1 min. To reduce GC and size bias in PCR, the appropriate number of PCR cycles is determined using qPCR. To run a qPCR side reaction, combine the following in qPCR compatible consumables: 5 μl of previously PCR amplified DNA, 4.41 μl Nuclease Free H2O, 0.25 μl 25 μM Customized Nextera PCR Primer 1, 0.25 μl 25 μM Customized Nextera PCR Primer 2, 0.09 μl 100×SYBR Green I, 5 μl NEBNext High-Fidelity 2×PCR Master Mix. Using a qPCR instrument, cycle as follows: 1 cycle of 98° C. for 30 sec, 20 cycles of 98° C. for 10 sec, 63° C. for 30 sec, 72° C. for 1 min. To calculate the additional number of cycles needed, plot linear Rn versus cycle and determine the cycle number that corresponds to […] fluorescent intensity. Run the remaining 45 μl PCR reaction to the cycle number determined by qPCR. Cycle as follows: 1 cycle of 98° C. for 30 sec, N cycles (determined using qPCR) of 98° C. for 10 sec, 63° C. for 30 sec, 72° C. for 1 min.

[2] = tested on: human T-ALL blasts and pS^552-β-cat^+ LSCs; assay: Patient-derived xenografts of MRD+ pediatric T-ALL treated with [Low]DXR; type: in vivo; conditions: [Low]DXR 5 days, two weeks after transplantation; Pt 057, Pt 062
Text: Shown is T-ALL blasts (CD45^+ c-Kit^−ve CD3^+) in Pt 057. Graphs indicate frequency of human CD45^+ cells (%)+SD.
Graphs indicate frequency of human CD45^+ cells (%)±SD.

[3] = tested on: patient BM with or without chemoresistant pS^552-β-cat^+ LSCs; assay: 2° PDX recipients treated with low-dose DXR ([Low]nanoDXR); type: in vivo, human
Procedure: (§1) FIG. 12F is the Kaplan-Meier survival curve for 2° PDX recipients treated with vehicle or [Low]nanoDXR. Bone marrow was harvested from 1° recipients of diagnostic BM, transplanted into a larger set of 2° PDX recipients and treated with [Low] NanoDXR starting at day 14 post-transplant and continuing for up to 10 weeks.
as §1, with “12G” for “12F”, “post-chemotherapy” for “diagnostic”
Human CD45^+ and human LSC engraftment was determined after succumbing to leukemia or at experimental endpoint. Graphs indicate frequency (%)+Std. Dev.
as §1, with “12L” for “12F”, “BM (FIG. 12D),” for “BM,”
as §1, with “12M” for “12F”, “BM (FIG. 12E),” for “BM,”
Human CD45^+ and human LSC engraftment was determined after succumbing to leukemia or at experimental endpoint. Graphs indicate frequency (%)+Std. Dev. (N.S.=not significant).
All patient samples were obtained under research ethics board approval with informed consent. Pediatric patient BM was transplanted into NSG mice. When 1° transplant mice succumbed to leukemia, bone marrow was harvested, frozen for later use, and transplanted into a larger set of 2° NSG recipients. […] Health was monitored independently by technicians blinded to any hypothetical outcome. […]

[4] = Pt samples containing chemoresistant pS552-β-cat+ LSCs

For `COc1cccc2c1C(=O)c1c(O)c3c(c(O)c1C2=O)C[C@@](O)(C(=O)CO)C[C@@H]3O[C@H]1C[C@H](N)[C@H](O)[C@H](C)O1` [DXR, doxorubicin], the “IC loci with increased accessibility” value ([1]; LSCs) was 3 loci, the “IC loci with reduced accessibility” value ([1]; LSCs) was 13 loci and the “IC loci with increased accessibility” value ([1]; blast cells) was 10. The “IC loci with reduced accessibility” value ([1]; blast cells) was 4, the “accessibility in the promoter regions of Wnt target genes in LSCs” value ([1]; not in blast cells) was “reduced” and the “engraftment of bulk blast cells” value [2] was “not significantly changed”. For the same compound, the “pS552-β-cat+ LSCs” value [2] was “significantly reduced”, the “leukemia engraftment and LSC frequency compared to vehicle control” value [3, 4] was “reduced leukemia engraftment and LSC frequency” and the “survival compared to vehicle control” value [3, 4] was “significantly improved survival”. For the same compound, the “survival, leukemia engraftment or LSC frequency” value ([3]; Pt samples lacking chemoresistant pS552-β-cat+ LSCs) was “no significant difference”.

Source: patent US12186332B2, “Methods for overcoming WNT/beta-catenin anti-cancer resistance in leukemia stem cells” (STOWERS INSTITUTE FOR MEDICAL RESEARCH, priority 2019, dated 2025)
